{"source": "ChEMBL document CHEMBL5465560", "about": "“Selectivity Literature for EUbOPEN Chemogenomic Library” (2024)", "key": {"[1]": {"molecular_target": "BMP-2-inducible protein kinase (Homo sapiens) (UniProt Q9NSY1)", "sequence (Q9NSY1 whole entry, looked up)": "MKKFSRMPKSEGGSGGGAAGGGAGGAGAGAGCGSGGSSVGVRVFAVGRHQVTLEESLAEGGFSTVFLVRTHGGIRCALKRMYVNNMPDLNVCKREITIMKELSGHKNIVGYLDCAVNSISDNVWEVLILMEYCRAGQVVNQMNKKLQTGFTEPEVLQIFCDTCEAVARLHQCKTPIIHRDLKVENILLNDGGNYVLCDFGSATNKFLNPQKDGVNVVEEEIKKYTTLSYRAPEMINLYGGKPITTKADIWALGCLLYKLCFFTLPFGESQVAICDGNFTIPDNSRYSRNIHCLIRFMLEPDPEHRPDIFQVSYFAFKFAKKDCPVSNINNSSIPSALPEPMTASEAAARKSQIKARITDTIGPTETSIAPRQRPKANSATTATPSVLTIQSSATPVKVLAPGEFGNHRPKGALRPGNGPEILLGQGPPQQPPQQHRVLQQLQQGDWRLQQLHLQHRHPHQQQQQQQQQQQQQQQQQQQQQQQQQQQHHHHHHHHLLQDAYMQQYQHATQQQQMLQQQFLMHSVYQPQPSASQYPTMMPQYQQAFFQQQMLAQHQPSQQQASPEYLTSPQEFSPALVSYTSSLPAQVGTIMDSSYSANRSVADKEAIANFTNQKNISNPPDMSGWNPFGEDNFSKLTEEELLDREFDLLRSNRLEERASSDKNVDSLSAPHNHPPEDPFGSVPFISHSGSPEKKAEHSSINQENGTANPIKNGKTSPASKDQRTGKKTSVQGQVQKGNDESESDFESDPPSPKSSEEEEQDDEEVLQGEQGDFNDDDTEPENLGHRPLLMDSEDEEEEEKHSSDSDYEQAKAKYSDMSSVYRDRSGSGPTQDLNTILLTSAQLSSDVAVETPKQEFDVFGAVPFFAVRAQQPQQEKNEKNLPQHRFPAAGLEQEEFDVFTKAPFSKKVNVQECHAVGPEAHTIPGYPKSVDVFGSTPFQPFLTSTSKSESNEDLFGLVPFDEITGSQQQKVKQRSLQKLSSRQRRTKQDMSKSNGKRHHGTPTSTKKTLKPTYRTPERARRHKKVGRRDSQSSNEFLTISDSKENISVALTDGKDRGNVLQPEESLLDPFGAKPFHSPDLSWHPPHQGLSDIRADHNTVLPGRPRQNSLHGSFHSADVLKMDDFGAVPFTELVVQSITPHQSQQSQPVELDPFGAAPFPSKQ", "assay": "Selectivity interaction (KinomeScan (DiscoverX)) EUB0001049a BMP2K", "settings": "at 1 µM"}, "[2]": {"molecular_target": "T1, Serine/threonine-protein kinase TBK1 (Homo sapiens) (UniProt Q9UHD2)", "T1 sequence (whole entry)": "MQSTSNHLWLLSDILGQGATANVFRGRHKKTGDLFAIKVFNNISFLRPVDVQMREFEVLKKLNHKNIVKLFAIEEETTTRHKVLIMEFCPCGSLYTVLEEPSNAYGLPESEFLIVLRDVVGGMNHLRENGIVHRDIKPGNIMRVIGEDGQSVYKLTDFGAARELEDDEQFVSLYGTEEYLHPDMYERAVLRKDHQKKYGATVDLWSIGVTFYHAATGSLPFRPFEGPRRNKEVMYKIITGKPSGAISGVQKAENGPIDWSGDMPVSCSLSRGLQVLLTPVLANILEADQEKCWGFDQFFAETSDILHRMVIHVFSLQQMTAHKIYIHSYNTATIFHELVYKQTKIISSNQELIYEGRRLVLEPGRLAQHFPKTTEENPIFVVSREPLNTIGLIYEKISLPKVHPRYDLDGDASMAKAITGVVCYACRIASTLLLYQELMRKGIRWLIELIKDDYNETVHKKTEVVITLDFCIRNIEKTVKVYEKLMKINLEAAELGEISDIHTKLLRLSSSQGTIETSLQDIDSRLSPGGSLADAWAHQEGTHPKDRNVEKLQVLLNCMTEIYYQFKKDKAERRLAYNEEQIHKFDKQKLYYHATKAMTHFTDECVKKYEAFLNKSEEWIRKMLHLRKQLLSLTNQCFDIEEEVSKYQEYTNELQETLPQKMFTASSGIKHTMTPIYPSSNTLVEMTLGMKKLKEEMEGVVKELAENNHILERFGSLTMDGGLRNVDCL", "assay": "Selectivity interaction (KinomeScan (DiscoverX)) EUB0000229b TBK1", "settings": "at 10 µM"}, "[3]": {"molecular_target": "T2, Testis-specific serine/threonine-protein kinase 3 (Homo sapiens) (UniProt Q96PN8)", "T2 sequence (whole entry)": "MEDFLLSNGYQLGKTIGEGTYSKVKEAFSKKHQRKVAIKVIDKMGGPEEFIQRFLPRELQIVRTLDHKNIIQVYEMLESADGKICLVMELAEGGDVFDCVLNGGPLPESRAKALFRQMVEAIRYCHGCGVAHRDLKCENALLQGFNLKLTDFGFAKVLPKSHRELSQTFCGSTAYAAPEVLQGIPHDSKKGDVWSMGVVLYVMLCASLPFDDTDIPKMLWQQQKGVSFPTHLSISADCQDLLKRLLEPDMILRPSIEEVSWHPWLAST", "assay": "Selectivity interaction (KinomeScan (DiscoverX)) EUB0001079a TSSK3", "settings": "at 1 µM"}, "[4]": {"molecular_target": "Bromodomain testis-specific protein (Homo sapiens) (UniProt Q58F21)", "assay": "Selectivity interaction (Human bromodomain panel (DSF assay)) EUB0000233b BRDT"}, "[5]": {"molecular_target": "Calcium/calmodulin-dependent protein kinase kinase 2 (Homo sapiens) (UniProt Q96RR4)", "sequence (Q96RR4 2-588 limits assumed)": "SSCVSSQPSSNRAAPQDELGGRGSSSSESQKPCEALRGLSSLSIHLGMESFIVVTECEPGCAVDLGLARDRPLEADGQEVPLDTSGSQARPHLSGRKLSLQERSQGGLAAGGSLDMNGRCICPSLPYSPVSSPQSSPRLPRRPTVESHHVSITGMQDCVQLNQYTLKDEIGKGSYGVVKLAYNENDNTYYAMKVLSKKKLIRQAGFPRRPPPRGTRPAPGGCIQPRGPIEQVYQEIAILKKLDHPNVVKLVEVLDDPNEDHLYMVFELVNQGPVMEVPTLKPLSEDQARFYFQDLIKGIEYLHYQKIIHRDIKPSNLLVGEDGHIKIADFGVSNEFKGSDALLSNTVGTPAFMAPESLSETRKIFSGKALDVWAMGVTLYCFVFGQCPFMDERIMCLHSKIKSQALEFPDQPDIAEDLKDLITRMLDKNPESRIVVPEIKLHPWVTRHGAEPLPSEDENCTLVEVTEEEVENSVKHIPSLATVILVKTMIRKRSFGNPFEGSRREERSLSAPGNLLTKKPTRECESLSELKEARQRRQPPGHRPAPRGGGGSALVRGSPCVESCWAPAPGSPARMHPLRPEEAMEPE", "assay": "Selectivity interaction (Kinase panel (DSF assay)) EUB0001559a CAMKK2"}, "[6]": {"molecular_target": "Microtubule-associated serine/threonine-protein kinase 2 (Homo sapiens) (UniProt Q6P0Q8)", "sequence (Q6P0Q8 whole entry)": "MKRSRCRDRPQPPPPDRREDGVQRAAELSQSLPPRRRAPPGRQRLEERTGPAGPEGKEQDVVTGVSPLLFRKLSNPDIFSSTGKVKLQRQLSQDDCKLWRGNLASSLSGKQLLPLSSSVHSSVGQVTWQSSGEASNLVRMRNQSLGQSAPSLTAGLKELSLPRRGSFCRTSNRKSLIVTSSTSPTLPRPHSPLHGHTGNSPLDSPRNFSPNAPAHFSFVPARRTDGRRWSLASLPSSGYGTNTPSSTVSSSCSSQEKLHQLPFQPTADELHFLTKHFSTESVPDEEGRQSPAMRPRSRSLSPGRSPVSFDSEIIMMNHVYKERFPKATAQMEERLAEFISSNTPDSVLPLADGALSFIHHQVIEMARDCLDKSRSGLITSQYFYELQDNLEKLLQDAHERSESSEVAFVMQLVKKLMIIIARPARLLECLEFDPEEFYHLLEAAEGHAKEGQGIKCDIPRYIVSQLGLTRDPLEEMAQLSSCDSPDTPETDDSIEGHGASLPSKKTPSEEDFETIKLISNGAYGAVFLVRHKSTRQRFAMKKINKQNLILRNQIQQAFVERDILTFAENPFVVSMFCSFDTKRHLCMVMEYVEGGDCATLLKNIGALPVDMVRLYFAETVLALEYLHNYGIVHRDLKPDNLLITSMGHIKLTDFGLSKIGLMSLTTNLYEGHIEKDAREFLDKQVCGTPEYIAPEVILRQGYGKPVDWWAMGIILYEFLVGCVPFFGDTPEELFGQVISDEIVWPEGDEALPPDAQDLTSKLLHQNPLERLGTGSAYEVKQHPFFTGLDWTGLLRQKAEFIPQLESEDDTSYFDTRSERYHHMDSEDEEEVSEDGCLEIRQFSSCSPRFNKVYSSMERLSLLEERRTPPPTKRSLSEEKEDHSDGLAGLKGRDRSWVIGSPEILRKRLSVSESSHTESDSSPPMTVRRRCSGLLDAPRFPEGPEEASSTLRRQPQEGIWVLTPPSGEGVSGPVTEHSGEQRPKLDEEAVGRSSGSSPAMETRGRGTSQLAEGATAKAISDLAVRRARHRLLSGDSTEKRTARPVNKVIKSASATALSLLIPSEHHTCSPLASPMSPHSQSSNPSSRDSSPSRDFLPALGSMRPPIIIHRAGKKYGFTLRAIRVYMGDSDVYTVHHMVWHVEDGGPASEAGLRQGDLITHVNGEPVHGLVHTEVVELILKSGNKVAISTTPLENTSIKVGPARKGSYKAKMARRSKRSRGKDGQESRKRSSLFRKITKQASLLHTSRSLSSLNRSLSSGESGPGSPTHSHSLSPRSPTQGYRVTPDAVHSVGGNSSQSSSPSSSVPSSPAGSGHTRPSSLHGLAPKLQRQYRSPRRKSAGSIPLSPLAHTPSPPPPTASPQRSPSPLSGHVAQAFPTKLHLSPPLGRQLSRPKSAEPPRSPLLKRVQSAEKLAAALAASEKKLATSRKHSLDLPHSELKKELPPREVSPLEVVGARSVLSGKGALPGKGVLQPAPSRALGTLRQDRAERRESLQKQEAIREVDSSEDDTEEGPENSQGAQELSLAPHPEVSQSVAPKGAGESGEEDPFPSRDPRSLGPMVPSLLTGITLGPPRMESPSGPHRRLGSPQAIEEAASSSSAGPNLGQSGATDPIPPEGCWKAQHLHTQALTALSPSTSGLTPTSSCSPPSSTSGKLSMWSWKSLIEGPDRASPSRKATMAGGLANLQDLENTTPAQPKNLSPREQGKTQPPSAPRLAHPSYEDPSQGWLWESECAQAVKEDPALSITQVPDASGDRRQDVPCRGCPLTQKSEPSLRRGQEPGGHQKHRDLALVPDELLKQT", "assay": "Selectivity interaction (ActivX KiNativ screen (kinase selectivity in THP-1 cell lysates)) EUB0000639a MAST2", "format": "subcellular", "settings": "lysate"}, "[7]": {"molecular_target": "Serine/threonine-protein kinase N1 (Homo sapiens, UniProt Q16512)", "sequence (Q16512 2-942 limits assumed)": "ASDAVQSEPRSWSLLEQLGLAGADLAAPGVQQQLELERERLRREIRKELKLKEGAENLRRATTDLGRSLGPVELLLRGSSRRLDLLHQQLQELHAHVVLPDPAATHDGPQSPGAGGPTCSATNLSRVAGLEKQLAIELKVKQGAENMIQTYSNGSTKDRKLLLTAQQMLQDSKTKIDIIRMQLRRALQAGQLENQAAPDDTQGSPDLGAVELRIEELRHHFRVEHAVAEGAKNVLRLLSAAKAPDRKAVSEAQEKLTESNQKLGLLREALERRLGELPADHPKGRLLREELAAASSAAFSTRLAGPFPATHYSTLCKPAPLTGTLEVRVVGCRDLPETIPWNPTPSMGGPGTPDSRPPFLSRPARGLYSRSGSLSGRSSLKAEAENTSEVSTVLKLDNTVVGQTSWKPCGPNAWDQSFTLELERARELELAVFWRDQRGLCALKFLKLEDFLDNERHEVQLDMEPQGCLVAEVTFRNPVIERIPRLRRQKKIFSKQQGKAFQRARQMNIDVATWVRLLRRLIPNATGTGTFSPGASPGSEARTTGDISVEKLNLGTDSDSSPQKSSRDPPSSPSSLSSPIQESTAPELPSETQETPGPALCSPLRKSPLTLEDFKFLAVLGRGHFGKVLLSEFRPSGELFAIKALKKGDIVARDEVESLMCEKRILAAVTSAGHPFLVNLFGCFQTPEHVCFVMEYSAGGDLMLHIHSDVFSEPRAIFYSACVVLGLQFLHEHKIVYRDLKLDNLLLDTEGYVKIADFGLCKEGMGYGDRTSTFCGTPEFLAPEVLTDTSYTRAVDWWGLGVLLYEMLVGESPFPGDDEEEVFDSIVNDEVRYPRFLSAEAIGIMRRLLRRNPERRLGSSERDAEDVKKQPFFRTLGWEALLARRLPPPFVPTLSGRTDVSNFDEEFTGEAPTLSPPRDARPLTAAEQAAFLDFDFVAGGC", "assay": "Selectivity interaction (KinomeScan (DiscoverX)) EUB0000618a PKN1", "settings": "at 10 µM"}, "[8]": {"molecular_target": "CDK4/Cyclin D3 (Homo sapiens) (UniProt P11802+P30281)", "settings": "at 10 µM"}, "[9]": {"molecular_target": "T3, Beta-adrenergic receptor kinase 1 (Homo sapiens) (UniProt P25098)", "T3 sequence (whole entry)": "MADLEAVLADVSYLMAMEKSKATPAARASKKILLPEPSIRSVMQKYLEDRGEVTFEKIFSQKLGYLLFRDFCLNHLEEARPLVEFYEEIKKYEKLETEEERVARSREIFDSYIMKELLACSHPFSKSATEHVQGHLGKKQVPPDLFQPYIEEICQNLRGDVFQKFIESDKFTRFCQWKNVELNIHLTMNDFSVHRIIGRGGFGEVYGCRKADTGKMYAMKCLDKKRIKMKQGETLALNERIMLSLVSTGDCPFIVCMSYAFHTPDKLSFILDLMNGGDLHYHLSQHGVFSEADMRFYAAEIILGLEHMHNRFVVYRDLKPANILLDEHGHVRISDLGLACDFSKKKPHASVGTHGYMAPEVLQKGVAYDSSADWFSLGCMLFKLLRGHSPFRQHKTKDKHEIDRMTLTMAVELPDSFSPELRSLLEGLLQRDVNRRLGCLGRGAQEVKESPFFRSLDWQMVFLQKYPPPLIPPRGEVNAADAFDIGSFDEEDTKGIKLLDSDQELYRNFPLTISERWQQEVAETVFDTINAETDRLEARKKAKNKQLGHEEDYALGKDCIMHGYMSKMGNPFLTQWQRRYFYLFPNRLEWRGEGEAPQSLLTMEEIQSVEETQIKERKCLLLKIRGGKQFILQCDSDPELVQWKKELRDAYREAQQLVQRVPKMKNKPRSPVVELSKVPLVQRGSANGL", "assay": "Selectivity interaction (ActivX KiNativ screen (ex vivo kinase selectivity in human PBMCs)) EUB0001619a ADRBK1", "format": "cell-based", "settings": "PBMC, at 1 µM"}, "[10]": {"molecular_target": "Mu-type opioid receptor (Homo sapiens, UniProt P35372)", "sequence (P35372 whole entry)": "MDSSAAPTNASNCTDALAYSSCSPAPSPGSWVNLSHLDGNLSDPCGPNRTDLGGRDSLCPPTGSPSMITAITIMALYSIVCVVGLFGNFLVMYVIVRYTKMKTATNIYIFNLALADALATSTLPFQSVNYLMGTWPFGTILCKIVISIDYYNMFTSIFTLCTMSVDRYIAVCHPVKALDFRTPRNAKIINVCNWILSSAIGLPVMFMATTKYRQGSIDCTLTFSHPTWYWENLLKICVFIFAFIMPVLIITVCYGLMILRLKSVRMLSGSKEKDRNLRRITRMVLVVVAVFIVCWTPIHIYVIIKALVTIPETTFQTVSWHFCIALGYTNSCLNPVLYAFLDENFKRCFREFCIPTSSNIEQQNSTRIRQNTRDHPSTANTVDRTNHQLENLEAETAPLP", "assay": "Selectivity interaction (Panel of kinases, GPCRs, ion channels and transporters (enzymatic assay)) EUB0000266bCl OPRM1"}, "[11]": {"molecular_target": "T4, 5-hydroxytryptamine receptor 3A (Homo sapiens) (UniProt P46098)", "T4 sequence (whole entry)": "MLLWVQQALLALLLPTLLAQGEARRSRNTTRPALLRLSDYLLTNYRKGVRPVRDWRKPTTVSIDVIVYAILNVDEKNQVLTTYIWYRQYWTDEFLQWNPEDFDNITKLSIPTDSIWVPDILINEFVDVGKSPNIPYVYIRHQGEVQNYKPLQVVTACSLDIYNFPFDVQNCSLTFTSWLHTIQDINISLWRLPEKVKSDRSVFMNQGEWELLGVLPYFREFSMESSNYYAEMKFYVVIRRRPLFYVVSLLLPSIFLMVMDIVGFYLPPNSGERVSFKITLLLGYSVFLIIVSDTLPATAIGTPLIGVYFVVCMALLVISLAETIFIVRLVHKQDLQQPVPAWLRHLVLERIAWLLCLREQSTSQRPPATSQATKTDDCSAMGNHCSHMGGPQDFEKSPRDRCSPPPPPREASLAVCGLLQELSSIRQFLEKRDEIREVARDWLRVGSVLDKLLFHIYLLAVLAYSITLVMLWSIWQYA", "assay": "Selectivity interaction (Panel of kinases, GPCRs, ion channels and transporters (enzymatic assay)) EUB0000223bCl HTR3A"}}, "data": [{"smiles": "COc1cc(Nc2nc(C)cc(-c3cnn4nc(OC)ccc34)n2)cc(C(F)(F)F)c1", "values": [{"measurement": "% of control", "setting": "[1]", "result": 86, "unit": "%"}]}, {"smiles": "COc1cc(N(C)c2ccnc3ccc(C(F)(F)F)cc23)cc(OC)c1OC", "values": [{"measurement": "% binding", "setting": "[2]", "result": 72, "unit": "%"}]}, {"smiles": "Nc1cnc(N2CCc3cc(S(=O)(=O)Nc4c(F)cc(Cl)cc4F)cc(N4CCCC4=O)c32)nc1", "note": "[TP-020n]", "values": [{"measurement": "% of control", "setting": "[3]", "result": 100, "unit": "%"}]}, {"smiles": "CN(C)CCCOc1ccc(-c2cc(NCCCn3cccn3)nc(S(C)(=O)=O)n2)cc1", "values": [{"measurement": "dTM", "setting": "[4]", "result": "< 2", "unit": "K"}]}, {"smiles": "CN(C(=O)c1cnn2cccnc12)c1cc2c(cc1N1CCOCC1)C(=O)N(C[C@@H](F)C(C)(C)O)C2", "values": [{"measurement": "dTM", "setting": "[5]", "result": 1.1, "unit": "K"}]}, {"smiles": "CC[C@@H]1[C@H](F)C(=O)N[C@@H]1COc1nccc2cc(C(N)=O)c(OC)cc12", "note": "[ZIMLOVISERTIB]", "values": [{"measurement": "% of inhibition", "setting": "[6]; at 0.01 µM", "result": -0.4, "unit": "%"}, {"measurement": "% of inhibition", "setting": "[6]; at 0.04 µM", "result": -2.4, "unit": "%"}, {"measurement": "% of inhibition", "setting": "[6]; at 0.2 µM", "result": -2.5, "unit": "%"}, {"measurement": "% of inhibition", "setting": "[6]; at 1 µM", "result": -1.4, "unit": "%"}, {"measurement": "% of inhibition", "setting": "[6]; at 5 µM", "result": -30.3, "unit": "%"}]}, {"smiles": "O[C@H]1CC[C@H](Nc2ncc3nc(Nc4c(F)cc(F)cc4F)n([C@H]4CCOC4)c3n2)CC1", "values": [{"measurement": "% of control", "setting": "[7]", "result": 91, "unit": "%"}]}, {"smiles": "Cc1cc([C@@H](C)Nc2ccccc2C(=O)O)c2nc(N3CCOCC3)cc(=O)n2c1", "note": "[AZD-6482]", "values": [{"measurement": "% of control", "setting": "[8]", "result": 100, "unit": "%"}]}, {"smiles": "N#Cc1cccc(-c2c[nH]c3ncnc(N4CCOCC4)c23)c1", "values": [{"measurement": "% of inhibition", "setting": "[9]", "result": -5, "unit": "%"}]}, {"smiles": "CCn1c(-c2nc3cc(C(=O)N4CCCC(N)C4)ccc3n2C)cc2ccccc21", "note": "(stereo not given)", "values": [{"measurement": "pXC50", "setting": "[10]", "result": "< 4", "unit": "M"}]}, {"smiles": "COc1cc(C(=O)N2CC[C@@H](O)[C@@H](N)C2)cc2nc(-c3cc4ccccc4n3CC3CC3)n(C)c12", "values": [{"measurement": "pXC50", "setting": "[11]", "result": 4.3, "unit": "M"}]}]}
